From patent US6355799B1, “Substituted benzene compounds, process for their preparation, and herbicidal and defoliant compositions containing them” (ISK Americas Incorporated, priority 1997, dated 2002)

Legend:
Assay type in all cases: in vivo
[1] = tested on: redroot pigweed (Amaranthus retroflexus, AMARE); experiment: Pre-emerge test, greenhouse herbicide activity screening; conditions: rating scale 0-100, 14 days after application
Procedure, shortened: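 Compounds in acetone were track-sprayed at 15-1000 g ai/ha (187 l/ha) on sandy loam pots: pre-emerge one day after seeding, post-emerge at 2-3 leaf stage with 0.25% v/v non-ionic surfactant. Phytotoxicity was rated 14 days later on a 0 (no damage) to 100 (complete death) scale.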

[2] = tested on: barnyardgrass (Echinochloa crus-galli, ECHCG); experiment: as above; conditions: rating scale 0-100, 14 days after application
Procedure, shortened: (§1)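 Fourteen days after spraying, crop and weed injury was graded visually from 0, no effect, to 100, every plant dead. Test substances were dissolved in acetone and applied at 15–1000 g ai/ha with a flat-fan nozzle. Application was either pre-emergence, one day after sowing, or post-emergence at the 2–3 leaf stage.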

[3] = tested on: green foxtail (Setaria viridis, SETVI); experiment: as above; conditions: rating scale 0-100, 14 days after application
Procedure, shortened: as §1

[4] = tested on: ivyleaf morningglory (Ipomoea hederacea, IPOHE); experiment: as above; conditions: rating scale 0-100, 14 days after application
Procedure, shortened: as §1

[5] = tested on: johnsongrass (Sorghum halepense, SORHA); experiment: as above; conditions: rating scale 0-100, 14 days after application
Procedure, shortened: as §1

[6] = tested on: lambsquarters (Chenopodium album, CHEAL); experiment: as above; conditions: rating scale 0-100, 14 days after application
Procedure, shortened: as §1

[7] = tested on: large crabgrass (Digitaria sanguinalis, DIGSA); experiment: as above; conditions: rating scale 0-100, 14 days after application
Procedure, shortened: as §1

[8] = tested on: sicklepod (Cassia obtusifolia, CASOB); experiment: as above; conditions: rating scale 0-100, 14 days after application
Procedure, shortened: as §1

[9] = tested on: velvetleaf (Abutilon theophrasti, ABUTH); experiment: as above; conditions: rating scale 0-100, 14 days after application
Procedure, shortened: as §1

[10] = tested on: field corn (Zea mays L., var. Dekalb 535, CORN); experiment: Pre-emerge test, crop safety; conditions: rating scale 0-100, 14 days after application
Procedure, shortened: (§2)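 Visual ratings on a 0-100 scale (0 no damage, 100 all plants dead) were taken at 14 days after treatment. Rates of 15-1000 g ai/ha in acetone, 187 l/ha, were sprayed onto soil one day after planting (pre-emerge) or onto 2-3 leaf plants with 0.25% v/v surfactant (post-emerge).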

[11] = tested on: upland rice (Oryza sp., var. Tebonnet, RICE); experiment: Pre-emerge test, crop safety; conditions: rating scale 0-100, 14 days after application
Procedure, shortened: as §2

[12] = tested on: barnyardgrass (Echinochloa crus-galli, ECHCG); experiment: Post-emerge test, greenhouse herbicide activity screening; conditions: rating scale 0-100 (0 no damage, 100 complete death), 14 days after application
Procedure, shortened: (§3)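 Sandy loam pots; pre-emerge: sown 1 d pre-spray, surface-watered after, then bottom-watered. Post-emerge: sown 8–21 d before, 2–3 leaf stage, + 0.25% v/v NIS, bottom-watered. Acetone, 187 l/ha track spray, 15–1000 g ai/ha. 0–100 injury score, day 14.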

[13] = tested on: common ragweed (Ambrosia artemisizfolia L., AMBEL); experiment: as above; conditions: rating scale 0-100 (0 no damage, 100 complete death), 14 days after application
Procedure, shortened: as §3

[14] = tested on: green foxtail (Setaria viridis, SETVI); experiment: as above; conditions: rating scale 0-100 (0 no damage, 100 complete death), 14 days after application
Procedure, shortened: as §3

[15] = tested on: ivyleaf morningglory (Ipomoea hederacea, IPOHE); experiment: as above; conditions: rating scale 0-100 (0 no damage, 100 complete death), 14 days after application
Procedure, shortened: as §3

[16] = tested on: johnsongrass (Sorghum halepense, SORHA); experiment: as above; conditions: rating scale 0-100 (0 no damage, 100 complete death), 14 days after application
Procedure, shortened: as §3

[17] = tested on: lambsquarters (Chenopodium album, CHEAL); experiment: as above; conditions: rating scale 0-100 (0 no damage, 100 complete death), 14 days after application
Procedure, shortened: as §3

[18] = tested on: large crabgrass (Digitaria sanguinalis, DIGSA); experiment: as above; conditions: rating scale 0-100 (0 no damage, 100 complete death), 14 days after application
Procedure, shortened: as §3

[19] = tested on: redroot pigweed (Amaranthus retroflexus, AMARE); experiment: as above; conditions: rating scale 0-100 (0 no damage, 100 complete death), 14 days after application
Procedure, shortened: as §3

[20] = tested on: sicklepod (Cassia obtusifolia, CASOB); experiment: as above; conditions: rating scale 0-100 (0 no damage, 100 complete death), 14 days after application
Procedure, shortened: as §3

[21] = tested on: velvetleaf (Abutilon theophrasti, ABUTH); experiment: as above; conditions: rating scale 0-100 (0 no damage, 100 complete death), 14 days after application
Procedure, shortened: as §3

[22] = tested on: field corn (Zea mays L., var. Dekalb 535, CORN); experiment: Post-emerge test, crop safety; conditions: rating scale 0-100 (0 no damage, 100 complete death), 14 days after application
Procedure, shortened: as §1

[23] = tested on: upland rice (Oryza sp., var. Tebonnet, RICE); experiment: Post-emerge test, crop safety; conditions: rating scale 0-100 (0 no damage, 100 complete death), 14 days after application
Procedure, shortened: as §1

`COCCOC(=O)C(C)(Cl)Cc1c(OC)c(Cl)cc(F)c1-n1c(=O)cc(C(F)(F)F)n(C)c1=O` (stereo not shown) [14-47] was tested, and the “Pre-emerge herbicidal activity, phytotoxicity rating AMARE” value ([1]; 63 g ai/ha) was 100, the “Pre-emerge herbicidal activity, phytotoxicity rating AMARE” value ([1]; 250 g ai/ha) was 100 and the “Pre-emerge herbicidal activity, phytotoxicity rating ECHCG” value ([2]; 63 g ai/ha) was 0. The “Pre-emerge herbicidal activity, phytotoxicity rating ECHCG” value ([2]; 250 g ai/ha) was 95, the “Pre-emerge herbicidal activity, phytotoxicity rating SETVI” value ([3]; 63 g ai/ha) was 0 and the “Pre-emerge herbicidal activity, phytotoxicity rating SETVI” value ([3]; 250 g ai/ha) was 99. The “Pre-emerge herbicidal activity, phytotoxicity rating IPOHE” value ([4]; 63 g ai/ha) was 0, the “Pre-emerge herbicidal activity, phytotoxicity rating IPOHE” value ([4]; 250 g ai/ha) was 0 and the “Pre-emerge herbicidal activity, phytotoxicity rating SORHA” value ([5]; 63 g ai/ha) was 0. For the same compound, the “Pre-emerge herbicidal activity, phytotoxicity rating SORHA” value ([5]; 250 g ai/ha) was 20, the “Pre-emerge herbicidal activity, phytotoxicity rating CHEAL” value ([6]; 63 g ai/ha) was 100 and the “Pre-emerge herbicidal activity, phytotoxicity rating CHEAL” value ([6]; 250 g ai/ha) was 100. The “Pre-emerge herbicidal activity, phytotoxicity rating DIGSA” value ([7]; 63 g ai/ha) was 30, the “Pre-emerge herbicidal activity, phytotoxicity rating DIGSA” value ([7]; 250 g ai/ha) was 100 and the “Pre-emerge herbicidal activity, phytotoxicity rating CASOB” value ([8]; 63 g ai/ha) was 0. For the same compound, the “Pre-emerge herbicidal activity, phytotoxicity rating CASOB” value ([8]; 250 g ai/ha) was 0, the “Pre-emerge herbicidal activity, phytotoxicity rating ABUTH” value ([9]; 63 g ai/ha) was 100 and the “Pre-emerge herbicidal activity, phytotoxicity rating ABUTH” value ([9]; 250 g ai/ha) was 100. The “Pre-emerge phytotoxicity rating, crop damage CORN” value ([10]; 63 g ai/ha) was 0, the “Pre-emerge phytotoxicity rating, crop damage CORN” value ([10]; 250 g ai/ha) was 0 and the “Pre-emerge phytotoxicity rating, crop damage RICE” value ([11]; 63 g ai/ha) was 0. The “Pre-emerge phytotoxicity rating, crop damage RICE” value ([11]; 250 g ai/ha) was 70, the “Post-emerge Herbicidal Activity, phytotoxicity rating ECHCG” value ([12]; Rate 63 g ai/ha) was 100 and the “Post-emerge Herbicidal Activity, phytotoxicity rating ECHCG” value ([12]; Rate 250 g ai/ha) was 100. For the same compound, the “Post-emerge Herbicidal Activity, phytotoxicity rating AMBEL” value ([13]; Rate 63 g ai/ha) was 100, the “Post-emerge Herbicidal Activity, phytotoxicity rating AMBEL” value ([13]; Rate 250 g ai/ha) was 100 and the “Post-emerge Herbicidal Activity, phytotoxicity rating SETVI” value ([14]; Rate 63 g ai/ha) was 90. For the same compound, the “Post-emerge Herbicidal Activity, phytotoxicity rating SETVI” value ([14]; Rate 250 g ai/ha) was 100, the “Post-emerge Herbicidal Activity, phytotoxicity rating IPOHE” value ([15]; Rate 63 g ai/ha) was 80 and the “Post-emerge Herbicidal Activity, phytotoxicity rating IPOHE” value ([15]; Rate 250 g ai/ha) was 100. The “Post-emerge Herbicidal Activity, phytotoxicity rating SORHA” value ([16]; Rate 63 g ai/ha) was 70, the “Post-emerge Herbicidal Activity, phytotoxicity rating SORHA” value ([16]; Rate 250 g ai/ha) was 80 and the “Post-emerge Herbicidal Activity, phytotoxicity rating CHEAL” value ([17]; Rate 63 g ai/ha) was 100. The “Post-emerge Herbicidal Activity, phytotoxicity rating CHEAL” value ([17]; Rate 250 g ai/ha) was 100, the “Post-emerge Herbicidal Activity, phytotoxicity rating DIGSA” value ([18]; Rate 63 g ai/ha) was 95 and the “Post-emerge Herbicidal Activity, phytotoxicity rating DIGSA” value ([18]; Rate 250 g ai/ha) was 100. For the same compound, the “Post-emerge Herbicidal Activity, phytotoxicity rating AMARE” value ([19]; Rate 63 g ai/ha) was 100, the “Post-emerge Herbicidal Activity, phytotoxicity rating AMARE” value ([19]; Rate 250 g ai/ha) was 100 and the “Post-emerge Herbicidal Activity, phytotoxicity rating CASOB” value ([20]; Rate 63 g ai/ha) was 0. For the same compound, the “Post-emerge Herbicidal Activity, phytotoxicity rating CASOB” value ([20]; Rate 250 g ai/ha) was 70, the “Post-emerge Herbicidal Activity, phytotoxicity rating ABUTH” value ([21]; Rate 63 g ai/ha) was 100 and the “Post-emerge Herbicidal Activity, phytotoxicity rating ABUTH” value ([21]; Rate 250 g ai/ha) was 100. The “Post-emerge phytotoxicity rating CORN (crop damage)” value ([22]; Rate 63 g ai/ha) was 40, the “Post-emerge phytotoxicity rating CORN (crop damage)” value ([22]; Rate 250 g ai/ha) was 100 and the “Post-emerge phytotoxicity rating RICE (crop damage)” value ([23]; Rate 63 g ai/ha) was 100. For the same compound, the “Post-emerge phytotoxicity rating RICE (crop damage)” value ([23]; Rate 250 g ai/ha) was 100.
